{"source": "paper PMC8355150", "about": "“Bioactive recombinant human oncostatin M for NMR-based screening in drug discovery” (Scientific Reports, 2021)", "molecular_target": "T1, Oncostatin M (OSM, rhOSM) (Homo sapiens, UniProt P13725)", "T1 construct": "residues 1–187", "T1 sequence (P13725 26-212)": "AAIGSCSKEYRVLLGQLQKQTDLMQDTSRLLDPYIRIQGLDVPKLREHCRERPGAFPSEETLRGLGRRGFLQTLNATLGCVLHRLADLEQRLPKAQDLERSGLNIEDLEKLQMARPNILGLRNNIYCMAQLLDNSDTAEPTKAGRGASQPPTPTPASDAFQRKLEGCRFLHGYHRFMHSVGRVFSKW", "assay": "1H, […] HSQC NMR titration (chemical shift perturbation); fluorescence quenching (Kd […])", "format": "binding"}
{"smiles": "O=C(O)/C=C/c1cc(-c2ccc3c(c2)OCO3)c(-c2ccc3c(c2)OCO3)o1", "note": "[OSM-SMI-10B]", "values": [{"measurement": "Kd", "result": "12.2 ± 3.9", "unit": "µM"}]}
